Laboratory results as given in patent publication US7563805B2, “Tri-, tetra-substituted-3-aminopyrrolidine derivative” (Daiichi Pharmaceutical Co., Ltd., priority 2005, dated 2009).
Converted amounts (≈) assume the structure as drawn. Marks after values point to notes of the source that are not given here.

Tests used:
S. aureus, 209P = assay: antibacterial activity (MIC), standard method of Japanese Society of Chemotherapy; settings: Staphylococcus aureus
S. epidermidis, 56500 = assay: as above; settings: Staphylococcus epidermidis, 56500, S. epidermidis
P. vulgaris, 08601 = assay: as above; settings: Proteus vulgaris, 08601, P. vulgaris
P. aeruginosa, 32121 = assay: as above; settings: Pseudomonas aeruginosa
E. coli NIHJ = assay: as above; settings: Escherichia coli
P. aeruginosa, 32104 = assay: as above; settings: Pseudomonas aeruginosa
[1] = tested on: S. pneumoniae, J24 (penicillin-intermediate resistant bacteria); assay: as above; settings: Streptococcus pneumoniae
hERG K+ channel = hERG K+ channel (Homo sapiens, UniProt Q12809); assay: hERG-K^+ channel blocking effect
hERG K+ channel, sequence (Q12809 whole entry): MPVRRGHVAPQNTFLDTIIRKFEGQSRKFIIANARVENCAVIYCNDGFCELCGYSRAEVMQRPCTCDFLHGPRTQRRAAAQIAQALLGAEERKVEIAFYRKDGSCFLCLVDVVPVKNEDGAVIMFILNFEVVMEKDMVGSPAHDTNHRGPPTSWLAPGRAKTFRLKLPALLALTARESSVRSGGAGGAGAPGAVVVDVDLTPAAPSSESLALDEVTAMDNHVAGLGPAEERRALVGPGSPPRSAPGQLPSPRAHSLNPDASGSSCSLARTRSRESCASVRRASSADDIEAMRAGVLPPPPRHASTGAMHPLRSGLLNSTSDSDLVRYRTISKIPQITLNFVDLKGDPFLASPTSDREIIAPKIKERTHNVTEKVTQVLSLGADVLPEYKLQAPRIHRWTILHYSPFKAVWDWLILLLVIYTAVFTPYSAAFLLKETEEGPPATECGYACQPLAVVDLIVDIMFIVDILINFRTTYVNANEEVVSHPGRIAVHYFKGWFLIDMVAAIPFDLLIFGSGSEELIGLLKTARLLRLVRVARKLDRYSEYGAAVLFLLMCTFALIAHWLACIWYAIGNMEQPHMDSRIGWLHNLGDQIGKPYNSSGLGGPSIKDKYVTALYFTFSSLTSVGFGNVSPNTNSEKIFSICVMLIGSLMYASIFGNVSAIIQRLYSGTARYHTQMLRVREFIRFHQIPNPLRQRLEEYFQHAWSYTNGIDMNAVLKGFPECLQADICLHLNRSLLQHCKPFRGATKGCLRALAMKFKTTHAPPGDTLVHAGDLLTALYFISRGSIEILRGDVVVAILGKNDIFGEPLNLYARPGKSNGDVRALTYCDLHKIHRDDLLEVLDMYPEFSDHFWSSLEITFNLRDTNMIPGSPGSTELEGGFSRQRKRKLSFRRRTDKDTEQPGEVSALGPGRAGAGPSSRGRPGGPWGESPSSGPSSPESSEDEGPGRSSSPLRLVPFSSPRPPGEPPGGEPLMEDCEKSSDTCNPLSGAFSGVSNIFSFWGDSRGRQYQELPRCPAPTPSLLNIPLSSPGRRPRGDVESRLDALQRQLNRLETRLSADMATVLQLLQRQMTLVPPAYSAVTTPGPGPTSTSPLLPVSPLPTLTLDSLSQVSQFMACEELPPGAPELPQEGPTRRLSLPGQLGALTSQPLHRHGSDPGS

E. faecalis, ATCC 19433 = assay: antibacterial activity (MIC), standard method of Japanese Society of Chemotherapy; settings: Enterococcus faecalis, ATCC19433, E. faecalis
[2] = tested on: S. aureus, 87037 (LVFX-resistant MRSA); assay: as above; settings: Staphylococcus aureus, MRSA, S. aureus, 87037 (LVFX-resistant MRSA)
S. marscecens, 10100 = assay: as above
[3] = potential convulsant activity upon intracisternal administration, with and without 4-biphenyl acetic acid (BPAA); settings: 5 μg/5 μL/mouse i. cist
Protocol: The potential convulsant activity upon intracisternal administration to mouse was also evaluated for the concomitant and administration with 4-biphenyl acetic acid (BPAA: an active metabolite of fenbufen) and in the absence of such concomitant administration. The evaluation was conducted by using 4 week old male Slc:ddY mice (6 animals per group) and intracisternally administering the test substance at a dose of 5 μg/5 μL/mouse (solvent, 0.5% lactic acid). Monitoring of the animals for the convulsion and death was started immediately after the administration and continued to 30 minutes after the administration. When used concomitantly with the BPAA, BPAA was suspended in 5% CMC, and 400 mg/kg was orally administered at a solution amount of 10 mL/kg, and the test substance was intracisternally administered 30 minutes after the BPAA.

SMILES | MIC (S. aureus, 209P) [µg/mL] | MIC (S. epidermidis, 56500) [µg/mL] | MIC (P. vulgaris, 08601) [µg/mL] | MIC (P. aeruginosa, 32121) [µg/mL] | MIC (E. coli NIHJ) [µg/mL] | MIC (P. aeruginosa, 32104) [µg/mL] | MIC [1] [µg/mL] | inhibition at 30 µM (hERG K+ channel) [%] | inhibition at 100 µM (hERG K+ channel) [%] | inhibition at 300 µM (hERG K+ channel) [%] | melting point | MIC (E. faecalis, ATCC 19433) [µg/mL] | MIC [2] [µg/mL] | MIC (S. marscecens, 10100) [µg/mL] | number of dead animals ([3]; (with BPAA 400 mg/kg oral, 30 minutes before)) | number of dead animals ([3]; (without BPAA))
COc1c(N2CC(CF)C(C)(N)C2)c(F)cc2c(=O)c(C(=O)O)cn([C@@H]3C[C@@H]3F)c12 (single isomer, unassigned) [Example 8, 7-[(3R*,4S*)-3-Amino-4-fluoromethyl-3-methylpyrrolidin-1-yl]-6-fluoro-1-[(1R,2S)-2-fluorocyclopropyl]-8-methoxy-1,4-dihydro-4-oxoguinoline-3-carboxylic acid] | 0.025 (≈ 0.0588 µM) | 0.1 (≈ 0.235 µM) | 0.025 (≈ 0.0588 µM) | 0.2 (≈ 0.47 µM) | 0.012 (≈ 0.0282 µM) | 0.78 (≈ 1.83 µM) | 0.1 (≈ 0.235 µM) | 1.5 ± 1.8 | 2.1 ± 2.3 | 2.3 ± 7.3 | 186 to 189 °C | 0.2 (≈ 0.47 µM) | 0.78 (≈ 1.83 µM) | 0.2 (≈ 0.47 µM) |  | 
Cc1c(N2CC(F)[C@](C)(N)C2)c(F)cc2c(=O)c(C(=O)O)cn([C@@H]3C[C@@H]3F)c12 (single isomer, unassigned) [Example 27] | 0.012 (≈ 0.0304 µM) | 0.05 (≈ 0.126 µM) | 0.006 (≈ 0.0152 µM) | 0.1 (≈ 0.253 µM) | 0.006 (≈ 0.0152 µM) | 0.39 (≈ 0.986 µM) | 0.1 (≈ 0.253 µM) | -1.8 ± 6.8 | 0.6 ± 8 | 8.9 ± 11 | 215 to 217 °C | 0.2 (≈ 0.506 µM) | 0.39 (≈ 0.986 µM) | 0.1 (≈ 0.253 µM) |  | 
O=C(O)c1cn(C2CC2)c2cc(N3CCNCC3)c(F)cc2c1=O [CPFX, ciprofloxacin, reference compound] | 0.1 (≈ 0.302 µM) | 0.2 (≈ 0.604 µM) | ≤ 0.003 | 0.025 (≈ 0.0754 µM) | ≤ 0.003 | 0.05 (≈ 0.151 µM) | 0.39 (≈ 1.18 µM) |  |  |  |  | 0.78 (≈ 2.35 µM) | > 6.25 | 0.025 (≈ 0.0754 µM) | 6/6**^## (6/6**^##) | 0/6 (0/6)
C=C1CN(c2c(F)cc3c(=O)c(C(=O)O)cn([C@@H]4C[C@@H]4F)c3c2OC)C[C@@]1(C)N [Example 15, 7-[(3S)-3-Amino-3-methyl-4-methylenepyrrolidine-1-yl]-6-fluoro-1-[(1R,2S)-2-fluorocyclopropyl]-8-methoxy-1,4-dihydro-4-oxoquinoline-3-carboxylic acid] | 0.05 (≈ 0.123 µM) | 0.1 (≈ 0.247 µM) | 0.025 (≈ 0.0617 µM) | 0.2 (≈ 0.493 µM) | 0.012 (≈ 0.0296 µM) | 0.39 (≈ 0.962 µM) | 0.1 (≈ 0.247 µM) |  |  |  | 100 to 102 °C | 0.2 (≈ 0.493 µM) | 0.78 (≈ 1.92 µM) | 0.2 (≈ 0.493 µM) |  | 
C[C@H]1COc2c(N3CC(C)(N)C4(CC4)C3)c(F)cc3c(=O)c(C(=O)O)cn1c23 (stereo partly drawn) [Example 16, (3S)-10-(7-Amino-7-methyl-5-azaspiro[2.4]heptane-5-yl)-9-fluoro-2,3-dihydro-3-methyl-7-oxo-7H-pyrido[1,2,3-de][1,4]benzoxazine-6-carboxylic acid] | 0.025 (≈ 0.0645 µM) | 0.1 (≈ 0.258 µM) | 0.006 (≈ 0.0155 µM) | 0.05 (≈ 0.129 µM) | 0.012 (≈ 0.031 µM) | 0.1 (≈ 0.258 µM) | 0.2 (≈ 0.516 µM) |  |  |  | 268 to 270 °C | 0.39 (≈ 1.01 µM) | 3.13 (≈ 8.08 µM) | 0.1 (≈ 0.258 µM) |  | 
C=C1CN(c2c(F)cc3c(=O)c(C(=O)O)cn([C@@H]4C[C@@H]4F)c3c2OC)C[C@]1(C)N [Example 17, 7-[(3R)-3-Amino-3-methyl-4-methylenepyrrolidine-1-yl]-6-fluoro-1-[(1R,2S)-2-fluorocyclopropyl]-8-methoxy-1,4-dihydro-4-oxoquinoline-3-carboxylic acid] | 0.025 (≈ 0.0617 µM) | 0.1 (≈ 0.247 µM) | 0.012 (≈ 0.0296 µM) | 0.1 (≈ 0.247 µM) | 0.006 (≈ 0.0148 µM) | 0.39 (≈ 0.962 µM) | 0.1 (≈ 0.247 µM) |  |  |  | 236 to 239 °C (dec.) | 0.2 (≈ 0.493 µM) | 0.39 (≈ 0.962 µM) | 0.1 (≈ 0.247 µM) |  | 
COc1c(N2C[C@H](CF)[C@](C)(N)C2)c(F)cc2c(=O)c(C(=O)O)cn(C3CC3)c12 [Example 21, 7-[(3S,4S)-3-Amino-4-fluoromethyl-3-methylpyrrolidin-1-yl]-1-cyclopropyl-6-fluoro-8-methoxy-1,4-dihydro-4-oxoquinoline-3-carboxylic acid] | 0.025 (≈ 0.0614 µM) | 0.1 (≈ 0.245 µM) | 0.05 (≈ 0.123 µM) | 0.2 (≈ 0.491 µM) | 0.012 (≈ 0.0295 µM) | 0.78 (≈ 1.91 µM) | 0.1 (≈ 0.245 µM) |  |  |  | 226 to 229 °C | 0.2 (≈ 0.491 µM) | 0.78 (≈ 1.91 µM) | 0.2 (≈ 0.491 µM) |  | 
Cc1c(N2C[C@H](CF)[C@](C)(N)C2)c(F)cc2c(=O)c(C(=O)O)cn([C@@H]3C[C@@H]3F)c12 [Example 22, 7-[(3S,4S)-3-Amino-4-fluoromethyl-3-methylpyrrolidin-1-yl]-6-fluoro-1-[(1R,2S)-2-fluoro-1-cyclopropyl]-8-methyl-1,4-dihydro-4-oxoquinoline-3-carboxylic acid] | 0.025 (≈ 0.0611 µM) | 0.05 (≈ 0.122 µM) | 0.012 (≈ 0.0293 µM) | 0.1 (≈ 0.244 µM) | 0.012 (≈ 0.0293 µM) | 0.39 (≈ 0.953 µM) | 0.1 (≈ 0.244 µM) | -1.3 ± 10.1 | -0.6 ± 7.9 | 21.5 ± 6.9 | 135 to 137 °C | 0.2 (≈ 0.489 µM) | 0.78 (≈ 1.91 µM) | 0.1 (≈ 0.244 µM) |  | 
Cc1c(N2CC3(CC3)[C@](C)(N)C2)ccc2c(=O)c(C(=O)O)cn([C@@H]3C[C@@H]3F)c12 [Example 29, 7-[(7S)-7-Amino-7-methyl-5-azaspiro[2.4]heptan-5-yl]-1-[(1R,2S)-2-fluorocyclopropyl]-8-methyl-1,4-dihydro-4-oxoquinoline-3-carboxylic acid] | 0.05 (≈ 0.13 µM) | 0.2 (≈ 0.519 µM) | 0.025 (≈ 0.0649 µM) | 0.1 (≈ 0.259 µM) | 0.05 (≈ 0.13 µM) | 0.2 (≈ 0.519 µM) | 0.39 (≈ 1.01 µM) |  |  |  | 157 to 159 °C | 0.78 (≈ 2.02 µM) | 3.13 (≈ 8.12 µM) | 0.2 (≈ 0.519 µM) |  | 
Cc1c(N2CC3(CC3)[C@](C)(N)C2)ccc2c(=O)c(C(=O)O)cn(C3CC3)c12 [Example 30, 7-[(7S)-7-Amino-7-methyl-5-azaspiro[2.4]heptan-5-yl]-1-cyclopropyl-8-methyl-1,4-dihydro-4-oxoquinoline-3-carboxylic acid] | 0.05 (≈ 0.136 µM) | 0.2 (≈ 0.544 µM) | 0.025 (≈ 0.068 µM) | 0.05 (≈ 0.136 µM) | 0.006 (≈ 0.0163 µM) | 0.2 (≈ 0.544 µM) | 0.2 (≈ 0.544 µM) |  |  |  | 227 to 230 °C | 0.39 (≈ 1.06 µM) | 1.56 (≈ 4.25 µM) | 0.1 (≈ 0.272 µM) |  | 
